Tested on: RAW 264.7 cells
Assay: LPS-induced TNF release by RAW 264.7 cells
Type: cell-based, murine
Conditions: for TNF-accumulated (% of control): peptide 10^-12 M, LPS 10 ng/ml, TNF by ELISA at 6 h, LPS alone set at 100%, mean ± SEM
Experimental: Murine macrophage-like RAW 264.7 cells were obtained from American Type Culture Collection, and were grown in Dulbecco’s Modified Eagle’s Medium (DMEM, Life Technologies) containing 10% (vol/vol) heat-inactivated fetal bovine serum (FBS, Hyclone Lab. Inc.), penicillin 100 U/ml, and streptomycin 100 μg/ml (BioWhittaker Inc.). Cells were suspended in medium and incubated in 24-well or 48-well tissue-culture plates overnight in a humidified incubator (37 °C, 5% CO2). Growth medium was removed and replaced by Opti-MEM I serum-free medium (Life Technologies) overnight. In the experiments, cell monolayers were stimulated with HMGB1 or LPS, in the absence or presence of MECO-1 or alpha-MSH; cell-free supernatants were assayed for TNF by ELISA or HMGB1 by western blotting.
Concentrations of TNF and IL-6 were each determined using a commercially available enzyme-linked immunosorbent assay (ELISA) kit (R&D System Inc.) as previously described.[34] The levels of TNF or IL-6 were calculated with reference to standard curves.
Fig. 2 Cytokine-induced TNF release inhibited by MECO-1. a Lipopolysaccharide (LPS), derived from the cell wall of Gram-negative bacteria, is a TLR4 and TLR2 agonist. RAW 264.7 cells were treated with MECO-1 and LPS simultaneously and incubated overnight. Supernatants were tested for TNF with ELISA. b Poly I:C, synthetic double stranded RNA, is recognized by TLR3. RAW 264.7 cells were pre-treated with MECO-1 and then stimulated with Poly I:C. Supernatants were tested in ELISA by TNF. c Peptidoglycan (PGN), another TLR2 agonist, is ubiquitous in the cell wall of bacteria. RAW 264.7 cells were pre-treated with MECO-1 and then stimulated with PGN; after overnight stimulation, supernatants were harvested and tested for TNF ELISA. d HMGB-1. Each vertical bar is the mean of three experimental points, using HMGB-1 to induce TNF release. Three sets of three experiments were used for the measurement of inhibition
Fig. 5 a Bioactive analogues of MECO-1. Murine macrophage-like RAW 264.7 cells were incubated with lipopolysaccharide (LPS, 4 ng/ml) in the absence or presence of MECO-1 or BACTN or BACFR, synthetic peptides based on the C-termini of EF-G of Bacteroides thetaiotamicron and Bacteroides fragilis. EFG-2 refers to human mitochondrial EFG-2 (mtEFG2). For Bacteroides thetaiotamicron, we used a 38-mer consisting of residues 681–703 shown in Fig. 4c followed by 704–718 QDKLIKDFEAKQTEE. For Bacteroides fragilis, we used a 33-mer consisting of residues, 681–703 shown in Fig. 4c followed by 704–713 = QDKLIKDFES. At 6 h after stimulation, aliquots of cell-free medium were examined. In other experiments, the synthetic peptide based on human mitochondrial EF-G1 (mtEFG1) gave results indistinguishable from EF-G2 (data not shown). The precise structure of the synthetic peptides is indicated in the text (see section “Results” and Table 1). Shown is a representative experiment.

alpha-melanocyte-stimulating hormone [alpha-MSH]
peptide concentration at which attenuation of LPS-induced TNF-alpha release was observed (RAW 264.7 cells, overnight incubation, ELISA): 10^−15 M
TNF-accumulated (% of control) (agouti 0 pM, RAW 264.7 cells): 67.05 ± 10.2 % of control
TNF-accumulated (% of control) (agouti 10 pM, RAW 264.7 cells): 132.6 ± 4.9 % of control
TNF-accumulated (% of control) (agouti 10^3 pM, RAW 264.7 cells): 138.6 ± 12.4 % of control
TNF-accumulated (% of control) (agouti 10^5 pM, RAW 264.7 cells): 122.2 ± 4.3 % of control
inhibition of LPS-induced TNF-alpha release (valley) (at 10^−11–10^−10 M peptide, attenuation lost above 10^−10 M): ~90%

— paper PMC5684143, “New melanocortin-like peptide of E. coli can suppress inflammation via the mammalian melanocortin-1 receptor (MC1R): possible endocrine-like function for microbes of the gut” (NPJ Biofilms and Microbiomes, 2017)
